Measured values published in EP4818163A1, “POLYCYCLIC COMPOUND AND USE THEREOF” (Zhejiang Jingke Pharmaceuticals Co., Ltd., priority 2023, dated 2025).

Columns and labels:
[1] = Preclinical pharmacokinetic test in rats; type: in vivo; conditions: rat, po; male SD rats, intragastric administration (p.o.), 10 mg/kg, plasma
Description: Healthy adult SD rats, male, aged 6-8 weeks, with a body weight of 200-300 g, purchased from Vital River Company; EDTA-Na2 anticoagulant; and analytical balance, animal weighing scale, magnetic stirrer, refrigerated centrifuge, single-channel manual pipette, and the like.
• 1. Drug preparation: approximately 10 mg of the test sample was accurately weighed and dissolved in 5% DMSO (after conversion), and then 10% solutol HS-15 and 85% normal saline were added. The mixture was subjected to ultrasonic processing and mixed by vortexing to obtain a solution at a concentration of 1 mg/mL, which was freshly prepared before use. 0.2 mL of the sample was transferred into a 1.5 mL centrifuge tube and stored at -80°C for administration solution concentration analysis. • 2. Animal preparation: the rats were fed in rat cages, and fasted (for at least 10 hours) with free access to water one day before the experiment. On the day of experiment, the rats were weighed and marked at the tail respectively. Blank blood samples were collected respectively before drug administration. The blood samples were collected via the tail vein. • 3. Drug administration: • administration route: intragastric administration (p.o.); • administration dose: 10 mg/kg; • administration volume: 10 mL/kg; and • operation procedure: the rat was restrained in an upright position with a left hand wearing bite-resistant gloves, a 16-gauge gavage needle was inserted through the oral cavity into the pharynx and advanced without obvious resistance, and then the drug was then injected into the stomach. • 4. Sample collection: whole blood (0.1 mL) was collected from each test animal before drug administration and at 0.5 hours, 1 hour, 2 hours, 4 hours, 6 hours, 8 hours, 12 hours and 24 hours after drug administration, transferred into EDTA-Na2 anticoagulant tubes, mixed evenly by inverting the tubes 3-4 times, and then centrifuged at 10000 g and 4°C for 5 minutes to separate plasma. The obtained plasma samples were stored at -80°C for later analysis. The blood samples were collected via the tail vein.
Specific operation: the rat was secured in a restrainer to fully expose its tail, the tail was wiped with alcohol to make the surface skin absorb the alcohol, so as to induce obvious venous dilation. A suitable vein was selected from two sides, and the needle was inserted at approximately one-third of the distance from the tail tip. An insulin syringe was used as the injection syringe, the needle was inserted with the bevel facing upward, and the needle was immediately adjusted to a parallel position after piercing the skin. Slight sliding resistance of the needle inside the vessel and blood reflux in the injection syringe indicated successful venous access. Approximately 0.1-0.2 mL of whole blood was drawn. Gentle compression was applied for hemostasis after needle removal.
Preparation of standard curve sample: 25 µL of blank rat plasma was transferred into a centrifuge tube respectively, 25 µL of prepared serial standard solution (prepared in methanol) was added, and then 200 µL of internal standard solution (prepared in methanol) was added. The mixture was mixed by vortexing for 2 minutes, and centrifuged at 10000 g and 4°C for 10 minutes.
Treatment of the unknown plasma sample: 25 µL of drug-containing rat plasma was collected respectively, and then 25 µL of methanol and 200 µL of internal standard solution were added sequentially. The mixture was mixed by vortexing for 2 minutes, and centrifuged at 10000 g and 4°C for 10 minutes. The supernatant was collected for LC/MS/MS detection.
A quantitative detection method for the test compound was established by using a Shimadzu liquid chromatography system and a Triple Quad TM 6500+AB mass spectrometer. A concentration of a parent drug in plasma was determined. Plasma concentration-time curves were plotted, and major pharmacokinetic parameters were calculated via a non-compartmental model in winnonlin Phoenix software. […]

[2] = Brain-penetrating pharmacokinetic test; type: in vivo, Sprague-Dawley (SD) rat; conditions: SD rats, p.o., 10 mg/kg, single administration; for Kp: Sprague-Dawley, rat, brain tissue / plasma, po, read-out: Total drug brain-to-plasma ratio (B/P)
Description: Administration vehicle: 5% DMSO+10% Solutol HS15+85% normal saline
Formulation preparation process: an appropriate amount of powder was weighed, an appropriate volume of DMSO was added, and the mixture was mixed by vortexing. Subsequently, an appropriate volume of Solutol solution was added and vortexed, then normal saline was added, and the mixture was subjected to vortexing and ultrasonic processing to form a homogeneous and clear formulation solution.
The experimental animals were fed in an animal room. The animal room was equipped with an air-conditioning system, with adequate ventilation, an indoor temperature was maintained at 20-26°C, and a relative humidity was maintained at 40%-70%. Artificial lighting was applied in the animal room, with a 12-hour light/dark cycle (except for working lights turned on during experimental operations and cleaning). The experimental animals had free access to food and water.
The purchased animals were fed normally for at least 3 days, rats with healthy physical conditions were included in the experiment, and each rat was marked with a tail number. Animals in an oral administration group were fasted overnight one day before drug administration, and fed 4 hours after drug administration, with free access to water.
• Administration route: intragastric administration (p.o.) • Administration concentration: 1 mg/mL • Administration dose: 10 mg/kg • Administration volume: 10 mL/kg • Administration frequency: single administration
Before drug administration, a state of the administration formulation was examined, the homogeneity of the formulation was ensured by vortexing, stirring or shaking, and a theoretical administration volume for each SD rat in every group was calculated according to the following formula. Theoretical; administration volume(mL) = (Dose (mg⋅kg^−1))/(Formulation; concentration(mg⋅mL^−1)) × Body; weight(kg) [formula]
The rats were sampled at 1 hour, 2 hours, 4 hours, 6 hours, 8 hours and 24 hours after drug administration.
Plasma: at each time point, 0.25 mL of whole blood was collected from the jugular vein and transferred into a test tube containing an anticoagulant EDTA-K2 (7 µL, 10% EDTA-K2 solution), placed on wet ice, and centrifuged within 1 hour (2,000 g, 2-8°C, 10 minutes), and then, the plasma was taken. The plasma was stored in a pre-chilled centrifuge tube, rapidly frozen in dry ice, and then stored in an ultra-low temperature refrigerator at -60°C or lower until LC-MS/MS analysis.
Cerebrospinal fluid: the rats were euthanized via a carbon dioxide process, and approximately 60 µL of cerebrospinal fluid was collected by puncture. 1 mL syringe was used, with the bevel of the needle facing upward, the needle tip was inserted into the subarachnoid space in a nearly horizontal position, then the needle was fixed, and the cerebrospinal fluid was slowly aspirated. The collected samples were frozen on dry ice within 30 minutes, and then transferred to an environment at -90°C to -60°C.
Brain tissue: cardiac perfusion was performed first, and then the brain tissue was isolated. Under deep terminal anesthesia, approximately 80 mL of normal saline was used for cardiac perfusion, and residual blood in the brain tissue was flushed out of cerebral circulation. The isolated brain tissue was gently rinsed once with ice-cold normal saline, excess water was removed, weighed, and then transferred to a frozen storage environment at -90°C to -60°C.
A quantitative detection method for the test compound was established by using a Shimadzu liquid chromatography system and a Triple Quad TM 6500+AB mass spectrometer. A concentration of a parent drug in a sample was analyzed. Quality control samples were used for variation control over analysis results, and the accuracy of the quality control samples should fall within the range of 80%-120%.
Pharmacokinetic parameters: Tmax, Cmax, AUC (0-t), AUC (0-∞), T1/2, MRT (0-∞), and the like were calculated by using winnonlin Phoenix 8.1.0.3530. […]

c-Kit kinase = c-Kit kinase (Homo sapiens, UniProt P10721); experiment: Enzyme activity assay (c-Kit kinase); type: biochemical
Description: Biological activity tests were performed on partial compounds synthesized in the above examples and comparative examples below. […]

Sequence of c-Kit kinase (P10721 26-976): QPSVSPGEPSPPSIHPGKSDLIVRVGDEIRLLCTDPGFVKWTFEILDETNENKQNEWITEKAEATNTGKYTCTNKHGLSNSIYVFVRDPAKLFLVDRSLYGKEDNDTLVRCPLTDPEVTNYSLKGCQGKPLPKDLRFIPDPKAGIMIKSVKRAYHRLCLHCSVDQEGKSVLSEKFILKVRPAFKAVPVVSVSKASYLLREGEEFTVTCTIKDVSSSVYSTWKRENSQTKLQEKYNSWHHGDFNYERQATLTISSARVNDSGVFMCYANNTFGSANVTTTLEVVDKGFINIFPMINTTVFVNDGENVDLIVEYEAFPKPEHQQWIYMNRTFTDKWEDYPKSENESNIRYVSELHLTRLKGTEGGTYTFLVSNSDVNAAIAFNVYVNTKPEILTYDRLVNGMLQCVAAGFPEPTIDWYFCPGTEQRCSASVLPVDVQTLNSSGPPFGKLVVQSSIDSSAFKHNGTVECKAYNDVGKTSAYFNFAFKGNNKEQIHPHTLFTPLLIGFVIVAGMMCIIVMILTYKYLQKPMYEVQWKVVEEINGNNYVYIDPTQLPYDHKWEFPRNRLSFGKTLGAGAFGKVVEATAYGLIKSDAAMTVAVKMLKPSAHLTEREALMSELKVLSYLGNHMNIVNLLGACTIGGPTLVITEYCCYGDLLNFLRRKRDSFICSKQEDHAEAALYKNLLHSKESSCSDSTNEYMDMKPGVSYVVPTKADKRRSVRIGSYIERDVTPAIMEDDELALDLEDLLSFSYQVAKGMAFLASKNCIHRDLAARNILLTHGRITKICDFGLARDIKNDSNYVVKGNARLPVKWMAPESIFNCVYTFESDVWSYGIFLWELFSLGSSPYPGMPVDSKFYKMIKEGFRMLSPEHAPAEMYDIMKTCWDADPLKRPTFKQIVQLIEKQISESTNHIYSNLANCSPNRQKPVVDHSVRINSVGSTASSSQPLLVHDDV

Row | AUC [1] [ng·h/mL] | Cmax [1] [ng/mL] | Total drug concentration in brain tissue [2] [ng·h/mL] | Total drug concentration in plasma [2] [ng·h/mL] | Kp [2] | IC50 (c-Kit kinase) [nM] | Compound
1 | 1770 | 321 | 356.98 | 1771.48 | 0.2 |  | Cc1ccc(NC(=O)c2ccc(CN3CCN(C)CC3)cc2)cc1Nc1nc(-c2cccnc2)cs1 [Masitinib, reference compound]
2 |  |  |  |  |  | 2.13 | [2H]C([2H])(c1ccc(C(=O)Nc2ccc(C(F)(F)F)c(Nc3nc(-c4cccnc4)cs3)c2)cc1)N1CCN(C)CC1 [Compound T-12]
3 | 2690 | 419 | 1370.43 | 2687.12 | 0.51 | 1.67 | [2H]C([2H])([2H])N1CCN(Cc2ccc(C(=O)Nc3ccc(C)c(Nc4nc(-c5cccnc5)cs4)c3)c(F)c2)CC1 [Compound T-01]
4 | 4290 | 533 |  |  |  | 1.35 | [2H]C([2H])([2H])N1CCN(C([2H])([2H])c2ccc(C(=O)Nc3ccc(C(F)(F)F)c(Nc4nc(-c5ccc(F)nc5)cs4)c3)c(F)c2)CC1 [Compound T-17]
5 |  |  | 3092.40 | 4123.20 | 0.75 | 2.1 | [2H]C([2H])([2H])N1CCN(Cc2ccc(C(=O)Nc3ccc(C(F)(F)F)c(Nc4nc(-c5cccnc5)cs4)c3)c(F)c2)CC1 [Compound T-20]
6 |  |  |  |  |  | 2.11 | [2H]C([2H])([2H])N1CCN(Cc2ccc(C(=O)Nc3ccc(C(F)(F)F)c(Nc4nc(-c5ccc(F)nc5)cs4)c3)c(F)c2)CC1 [Compound T-19]
7 |  |  |  |  |  | 3.55 | [2H]C([2H])(c1ccc(C(=O)Nc2ccc(C(F)(F)F)c(Nc3nc(-c4ccc(F)nc4)cs3)c2)cc1)N1CCN(C)CC1 [Compound T-11]
8 |  |  |  |  |  | 3.56 | [2H]C([2H])([2H])N1CCN(C([2H])([2H])c2ccc(C(=O)Nc3ccc(C(F)(F)F)c(Nc4nc(-c5cccnc5)cs4)c3)cc2)CC1 [Compound T-15]
9 |  |  | 1798.12 | 3269.32 | 0.55 | 3.89 | [2H]C([2H])([2H])N1CCN(C([2H])([2H])c2ccc(C(=O)Nc3ccc(C)c(Nc4nc(-c5cccnc5)cs4)c3)c(F)c2)CC1 [Compound T-08]
10 | 4000 | 501 |  |  |  | 3.12 | [2H]C([2H])([2H])N1CCN(C([2H])([2H])c2ccc(C(=O)Nc3ccc(C(F)(F)F)c(Nc4nc(-c5cccnc5)cs4)c3)c(F)c2)CC1 [Compound T-18]
11 | 2370 | 397 |  |  |  |  | [2H]C([2H])(c1ccc(C(=O)Nc2ccc(C)c(Nc3nc(-c4cccnc4)cs3)c2)cc1)N1CCN(C)CC1 [Compound T-02]
12 | 3260 | 486 |  |  |  |  | [2H]C([2H])([2H])N1CCN(C([2H])([2H])c2ccc(C(=O)Nc3ccc(C)c(Nc4nc(-c5cccnc5)cs4)c3)cc2)CC1 [Compound T-04]
13 |  |  | 2763.22 | 3891.87 | 0.71 | 1.36 | [2H]C([2H])(c1ccc(C(=O)Nc2ccc(C(F)(F)F)c(Nc3nc(-c4cccnc4)cs3)c2)c(F)c1)N1CCN(C)CC1 [Compound T-21]
14 | 4010 | 516 | 3129.79 | 4012.56 | 0.78 | 2.12 | [2H]C([2H])(c1ccc(C(=O)Nc2ccc(C(F)(F)F)c(Nc3nc(-c4ccc(F)nc4)cs3)c2)c(F)c1)N1CCN(C)CC1 [Compound T-16]
